This passage reports HC10 and MIC results from ChEMBL document CHEMBL5608163, “Structure modification of anoplin for fighting resistant bacteria” (Eur J Med Chem, 2024).

Each structure is given as a SMILES string. ≈ marks a conversion by molar mass, not a printed value. Bridge positions count the residues as written; N and C are the ends. Square brackets hold non-standard residues; d marks the D form. Triazole bridges read from a SMILES are 1,4-linked. Peptide text beside a SMILES is read from it. I, II: the chains in the order shown. Lys(N3) = [N-]=[N+]=NCCCC[C@H](N)C(=O)O; Pra = C#CC[C@H](N)C(=O)O A value given as a limit tells only on which side of the number the result lay.

One data set concerns Erythrocyte. As to the kind of experiment: Hemolytic activity in human red blood cells. The class given is toxicity, cell-based. Conditions: erythrocyte.
Data set [1] concerns Bacillus subtilis. As to the kind of experiment: Antibacterial activity against Bacillus subtilis ATCC 23857 assessed as reduction in bacterial growth measured after 18 hrs by CLSI protocol-based Mueller-Hinton broth dilution method. Format: functional.
The subject of data set [2] is Escherichia coli. As to the kind of experiment: Antibacterial activity against Escherichia coli ATCC 25922 assessed as reduction in bacterial growth measured after 18 hrs by CLSI protocol-based Mueller-Hinton broth dilution method. The class given is functional. For orientation: Broth dilution looks for growth in wells or tubes with falling amounts of substance.
The test system of data set [3] is Pseudomonas aeruginosa. As to the kind of experiment: Antibacterial activity against Pseudomonas aeruginosa ATCC 27853 assessed as reduction in bacterial growth measured after 18 hrs by CLSI protocol-based Mueller-Hinton broth dilution method. Format: functional.
The subject of data set [4] is Staphylococcus aureus. Briefly: Antibacterial activity against Staphylococcus aureus ATCC 25923 assessed as reduction in bacterial growth measured after 18 hrs by CLSI protocol-based Mueller-Hinton broth dilution method. Format: functional.
Data set [5] deals with Staphylococcus aureus. Briefly: Antibacterial activity against Methicillin-resistant Staphylococcus aureus 936 assessed as bacterial growth inhibition measured for 18 hrs by CLSI-protocol based Mueller-Hinton Broth micro-dilution assay. The class given is functional.
Data set [6] has as its system Bacillus subtilis. Briefly: Antibacterial activity against Bacillus subtilis ATCC 23857 assessed as reduction in bacterial growth measured after 18 to 24 hrs by CLSI protocol-based Mueller-Hinton broth dilution method. To be noted: time 18-24 hrs. The class given is functional.
In data set [7] the test system is Staphylococcus aureus. As to the kind of experiment: Antibacterial activity against Staphylococcus aureus ATCC 25923 assessed as reduction in bacterial growth measured after 18 to 24 hrs by CLSI protocol-based Mueller-Hinton broth dilution method. Format: functional. Conditions: time 18-24 hrs.
The test system of the next data set is Klebsiella pneumoniae. Briefly: Antibacterial activity against Klebsiella pneumoniae ATCC 700603 assessed as reduction in bacterial growth measured after 18 to 24 hrs by CLSI protocol-based Mueller-Hinton broth dilution method. The class given is functional. Conditions: time 18-24 hrs.
Another data set has as its system Acinetobacter baumannii. Briefly: Antibacterial activity against multi-drug resistant Acinetobacter baumannii clinical isolate 9840 assessed as reduction in bacterial growth measured after 18 to 24 hrs by CLSI protocol-based Mueller-Hinton broth dilution method. Format: functional. Conditions: time 18-24 hrs.
In data set [8] the test system is Escherichia coli. As to the kind of experiment: Antibacterial activity against multi-drug resistant Escherichia coli clinical isolate 850 assessed as reduction in bacterial growth measured after 18 to 24 hrs by CLSI protocol-based Mueller-Hinton broth dilution method. The class given is functional. To be noted: time 18-24 hrs.
In data set [9] the test system is Pseudomonas aeruginosa. As to the kind of experiment: Antibacterial activity against multi-drug resistant Pseudomonas aeruginosa clinical isolate 119 assessed as reduction in bacterial growth measured after 18 to 24 hrs by CLSI protocol-based Mueller-Hinton broth dilution method. Format: functional. To be noted: time 18-24 hrs.
The subject of data set [10] is Staphylococcus aureus. As to the kind of experiment: Antibacterial activity against Staphylococcus aureus ATCC 25923 assessed as bacterial growth inhibition measured for 18 hrs by CLSI-protocol based Mueller-Hinton Broth micro-dilution assay. The class given is functional.

What is called MIC is the smallest concentration in the dilution series that meets the test's criterion for growth inhibition. In the case of `CC[C@H](C)[C@H](NC(=O)[C@H](CCCNC(=N)N)NC(=O)[C@H](CCCCN)NC(=O)[C@H](CC(C)C)NC(=O)[C@H](CC(C)C)NC(=O)CNC(=O)[C@H](Cc1cn(CCCC[C@H](NC(C)=O)C(=O)N[C@@H](CCCNC(=N)N)C(=O)N[C@@H](CCCNC(=N)N)C(=O)N[C@@H](Cc2c[nH]c3ccccc23)C(=O)N[C@@H](Cc2c[nH]c3ccccc23)C(=O)N[C@@H](CCCNC(=N)N)C(=O)N[C@@H](Cc2ccccc2)C(N)=O)nn1)NC(C)=O)C(=O)N[C@@H](CCCCN)C(=O)N[C@H](C(=O)N[C@@H](CC(C)C)C(=O)N[C@@H](CC(C)C)C(N)=O)[C@@H](C)O` (I: Ac-[Pra]GLLKRIKTLL-NH2 / II: Ac-[Lys(N3)]RRWWRF-NH2; triazole I:1-II:1), the HC10 in the data set on Erythrocyte is more than 150 µM. Besides, the MIC in the data set with Bacillus subtilis [1] came out at 4 µM (≈ 9.97 µg/mL); in the data set on Escherichia coli [2] it was 8 µM (≈ 19.9 µg/mL); with Pseudomonas aeruginosa [3], 16 µM (≈ 39.9 µg/mL); in the data set with Staphylococcus aureus [4] it was 4 µM (≈ 9.97 µg/mL).
For `CC[C@H](C)[C@H](NC(=O)[C@H](CCCNC(=N)N)NC(=O)[C@@H](CCCCN)NC(=O)[C@H](CC(C)C)NC(=O)[C@H](CC(C)C)NC(=O)CNC(C)=O)C(=O)N[C@H](CCCCN)C(=O)N[C@H](C(=O)N[C@@H](CC(C)C)C(=O)N[C@@H](CC(C)C)C(=O)NC(Cc1cn(CCCC[C@H](NC(=O)[C@H](CC(C)C)NC(=O)[C@H](CC(C)C)NC(=O)[C@@H](NC(=O)[C@@H](CCCCN)NC(=O)[C@@H](NC(=O)[C@H](CCCNC(=N)N)NC(=O)[C@@H](CCCCN)NC(=O)[C@H](CC(C)C)NC(=O)[C@H](CC(C)C)NC(=O)CNC(C)=O)[C@@H](C)CC)[C@@H](C)O)C(N)=O)nn1)C(N)=O)[C@@H](C)O` (stereo partly specified), the MIC in the data set on Staphylococcus aureus [5] was 128 µM (≈ 338 µg/mL); in the data set on Bacillus subtilis [6] it was 4 µM (≈ 10.6 µg/mL); in the data set with Staphylococcus aureus [7], 128 µM (≈ 338 µg/mL); in the data set on Klebsiella pneumoniae it was 64 µM (≈ 169 µg/mL); in the data set on Acinetobacter baumannii, 4 µM (≈ 10.6 µg/mL); with Escherichia coli [8] it was 16 µM (≈ 42.2 µg/mL). The MIC with Pseudomonas aeruginosa [9] came to 16 µM (≈ 42.2 µg/mL); in the data set with Staphylococcus aureus [10] it was 128 µM (≈ 338 µg/mL).
As for `CC[C@H](C)[C@H](NC(=O)[C@H](CCCNC(=N)N)NC(=O)[C@@H](CCCCN)NC(=O)[C@H](CC(C)C)NC(=O)[C@H](CC(C)C)NC(=O)CNC(=O)[C@H](CCCCn1cc(CC(NC(=O)[C@H](CC(C)C)NC(=O)[C@H](CC(C)C)NC(=O)[C@@H](NC(=O)[C@@H](CCCCN)NC(=O)[C@@H](NC(=O)[C@H](CCCNC(=N)N)NC(=O)[C@@H](CCCCN)NC(=O)[C@H](CC(C)C)NC(=O)[C@H](CC(C)C)NC(=O)CNC(C)=O)[C@@H](C)CC)[C@@H](C)O)C(N)=O)nn1)NC(C)=O)C(=O)N[C@H](CCCCN)C(=O)N[C@H](C(=O)N[C@@H](CC(C)C)C(=O)N[C@@H](CC(C)C)C(N)=O)[C@@H](C)O` (stereo partly specified), the MIC in the data set with Staphylococcus aureus [5] stood at 64 µM (≈ 169 µg/mL); in the data set on Bacillus subtilis [6] it was 2 µM (≈ 5.28 µg/mL); in the data set on Staphylococcus aureus [7], 128 µM (≈ 338 µg/mL); in the data set on Klebsiella pneumoniae, 32 µM (≈ 84.5 µg/mL); with Acinetobacter baumannii it was 4 µM (≈ 10.6 µg/mL); in the data set with Escherichia coli [8] it was 32 µM (≈ 84.5 µg/mL). Besides, the MIC in the data set with Pseudomonas aeruginosa [9] worked out at 16 µM (≈ 42.2 µg/mL); with Staphylococcus aureus [10] it was 64 µM (≈ 169 µg/mL).
Compound `CC[C@H](C)[C@H](NC(=O)[C@H](CCCNC(=N)N)NC(=O)[C@H](CCCCN)NC(=O)[C@H](CC(C)C)NC(=O)[C@H](CC(C)C)NC(=O)CNC(=O)[C@H](CCCCn1cc(C[C@H](NC(C)=O)C(=O)NCC(=O)N[C@@H](CC(C)C)C(=O)N[C@@H](CC(C)C)C(=O)N[C@@H](CCCCN)C(=O)N[C@@H](CCCNC(=N)N)C(=O)N[C@H](C(=O)N[C@@H](CCCCN)C(=O)N[C@H](C(=O)N[C@@H](CC(C)C)C(=O)N[C@@H](CC(C)C)C(N)=O)[C@@H](C)O)[C@@H](C)CC)nn1)NC(C)=O)C(=O)N[C@@H](CCCCN)C(=O)N[C@H](C(=O)N[C@@H](CC(C)C)C(=O)N[C@@H](CC(C)C)C(N)=O)[C@@H](C)O` (I: Ac-[Lys(N3)]GLLKRIKTLL-NH2 / II: Ac-[Pra]GLLKRIKTLL-NH2; triazole I:1-II:1) gave an HC10 in the data set with Erythrocyte of 150 µM. Also, the MIC in the data set on Bacillus subtilis [1] worked out at 2 µM (≈ 5.28 µg/mL); in the data set on Escherichia coli [2], 4 µM (≈ 10.6 µg/mL); in the data set on Pseudomonas aeruginosa [3], 16 µM (≈ 42.2 µg/mL); with Staphylococcus aureus [4], 8 µM (≈ 21.1 µg/mL).
